Experimental data taken from US8273754B2, “Substituted 1H-pyrazolo[3,4-D]pyrimidine-6-amine compounds” (ArQule, Inc., priority 2008, dated 2012).
Like-named read-outs stand apart in the source and are kept apart here.

Experiments:
[1] = system: cancer cells; assay: MTS cell growth inhibition assay (72 hours); type: cell-based
Method in brief: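 Growth inhibition read as formazan absorbance at 492 nm after 4 h MTS/PMS, following 72 h compound exposure at 37 °C in 1% FBS DMEM (cells pre-seeded 18 h). IC50 = 50% absorbance reduction; inhibition graded in bands.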

[2] = molecular target: T1, FGFR2 (N549H) (Homo sapiens, UniProt P21802, N549H); assay: fluorescent ELISA assay for inhibitors of FGFR2 kinase; type: biochemical; settings: Pyk2 peptide substrate, 60 minutes
T1 construct: purchased Millipore 14-742
Protocol: The enzymatic assays described herein are conducted according to the following procedures from commercially available reagents. In one non-limiting example, a fluorescent ELISA assay is used to identify and characterize inhibitors of FGFR2 kinase as described herein. This heterogeneous assay utilizes a biotinylated peptide with a tyrosine motif as a substrate and an anti-phospho-tyrosine antibody to measure phosphorylation of the substrate. The reaction is initiated by adding the test compound, 37 μM Pyk2 substrate (Midwest Biotech, Cat. #MBT2383), 12.5 μM ATP (Roche, Cat. #11 140 965 001) and 0.5 μM FGFR2 enzyme (Millipore, Cat. #14-742) sequentially to a non-binding polypropylene V-well plate. All reagents are in an assay buffer consisting of: 50 mM Tris-HCL, 0.02 mg/ml BSA, 10 mM MgCl2, 0.1 mM Na3VO4, 1 mM EGTA, 75 μM ATP, 0.01% NP-40, 2 mM DTT and 10% glycerol. The reaction is incubated for 60 minutes. As the reaction proceeds, FGFR2 phosphorylates tyrosines in the peptide. The reaction mixture is then moved to a blocked streptavidin-coated Nunc Maxisorb plate (coated with 100 ng streptavidin from Pierce (Cat. #15-124) per well), allowing for the capture of the biotinylated peptide. Peptides are captured for 30 minutes at room temperature, the phosphorylation of peptides continues during this phase. The reaction is stopped by washing the streptavidin-coated plate 6 times with TBST. Phosphorylated peptide is detected by adding anti-phospho-tyrosine antibody (Cell Signaling, Cat. #9411, diluted 1:3000) to the streptavidin-coated plate. Unbound anti-phospho-tyrosine antibody is removed by washing the streptavidin-coated plate 6 times with TBST. Secondary detection is performed using alkaline phosphatase tagged goat anti-mouse antibody (Pierce, Cat. #31320, diluted 1:4000) for one hour. Unbound secondary antibody is removed by washing the streptavidin-coated plate 6 times with TBST. The fluorescent readout is initiated by adding to the streptavidin-coated plate Promega Attophos substrate (Promega, Cat. #S1000, dilution=6 mg/10 ml), which, when dephosphorylated by alkaline phosphatase, emits a fluorescent signal of 595 nm in wavelength when excited by a signal of 400 nm in wavelength. The reading of the 595 nm signal is done on the Perkin Elmer Envision system. Compounds which prevent FGFR2 from phosphorylating the peptide result in a lower fluorescent signal. The 595 nm fluorescent signal is directly proportional to the activity of FGFR2. Thus, the inhibition of FGFR2 by compounds is monitored by the decrease in the 595 nm fluorescent signal.

[3] = Homo sapiens, DLD-1, 72 h, DLD-1 cells, read-out: DLD-1 MTS 72 hr at 10 μM
[4] = Homo sapiens, KATO III, 72 h, KATO III cells, read-out: KATO III MTS 72 hr at 10 μM
[5] = Homo sapiens, MDA-MB-231, 72 h, MDA-MB-231 cells, read-out: MDA-MB-231 MTS 72 hr at 10 μM
[6] = Homo sapiens, NCI-H1299, 72 h, NCI-H1299 cells, read-out: NCI-H1299 MTS 72 hr at 10 μM
[7] = PaCa-2, 72 h, PACA-2 cells, read-out: PACA-2 MTS 72 hr at 10 μM

T1 sequence (P21802 22-821 N549H): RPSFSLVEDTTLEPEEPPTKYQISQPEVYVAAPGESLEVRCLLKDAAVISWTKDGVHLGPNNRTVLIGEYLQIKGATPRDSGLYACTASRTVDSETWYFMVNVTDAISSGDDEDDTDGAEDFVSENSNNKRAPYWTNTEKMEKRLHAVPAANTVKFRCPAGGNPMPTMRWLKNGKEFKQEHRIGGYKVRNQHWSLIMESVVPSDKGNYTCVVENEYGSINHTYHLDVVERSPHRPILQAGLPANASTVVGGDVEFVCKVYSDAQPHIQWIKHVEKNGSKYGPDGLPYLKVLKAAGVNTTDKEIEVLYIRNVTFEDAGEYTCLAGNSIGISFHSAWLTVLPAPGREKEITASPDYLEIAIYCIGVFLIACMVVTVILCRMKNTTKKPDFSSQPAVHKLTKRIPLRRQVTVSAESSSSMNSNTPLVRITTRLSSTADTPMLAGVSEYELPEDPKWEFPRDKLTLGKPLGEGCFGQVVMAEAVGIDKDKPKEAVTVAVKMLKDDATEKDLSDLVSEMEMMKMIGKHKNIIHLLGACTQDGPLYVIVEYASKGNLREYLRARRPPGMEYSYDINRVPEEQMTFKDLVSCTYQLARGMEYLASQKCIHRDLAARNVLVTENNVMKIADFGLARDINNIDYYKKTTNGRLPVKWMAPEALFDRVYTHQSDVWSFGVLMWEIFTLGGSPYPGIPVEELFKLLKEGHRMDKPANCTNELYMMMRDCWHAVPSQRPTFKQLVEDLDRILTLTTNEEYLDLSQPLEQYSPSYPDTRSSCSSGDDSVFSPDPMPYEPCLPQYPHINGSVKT

SMILES | inhibition at 10 µM [1, 3] [%] | inhibition at 10 µM [1, 4] [%] | inhibition at 10 µM [1, 5] [%] | inhibition at 10 µM [1, 6] [%] | inhibition at 10 µM [1, 7] [%] | IC50 [2] [nM]
Nc1nc(NC2Cc3ccccc3N(CCc3ccc(Cl)cc3Cl)C2)c2cn[nH]c2n1 (stereo not drawn) [Compound 3, N^4-(1-(2-(2,4-dichlorophenyl)ethyl)-1,2,3,4-tetrahydroquinolin-3-yl)-1H-pyrazolo[3,4-d]pyrimidine-4,6-diamine] | > 79 | > 79 | > 79 | > 79 | > 79 | 7830
Nc1nc(NC2Cc3ccccc3N(Cc3ccc(F)cc3)C2)c2cn[nH]c2n1 (stereo not drawn) [Compound 6, N^4-(1-(4-fluorobenzyl)-1,2,3,4-tetrahydroquinolin-3-yl)-1H-pyrazolo[3,4-d]pyrimidine-4,6-diamine] | > 79 | > 79 | > 79 | > 79 | > 79 | 900
Nc1nc(NC2Cc3ccccc3N(Cc3ccc(Cl)c(Cl)c3)C2)c2cn[nH]c2n1 (stereo not drawn) [Compound 7, N^4-(1-(3,4-dichlorobenzyl)-1,2,3,4-tetrahydroquinolin-3-yl)-1H-pyrazolo[3,4-d]pyrimidine-4,6-diamine] | > 79 | > 79 | > 79 | > 79 | > 79 | 3970
CN(c1nc(N)nc2[nH]ncc12)C1Cc2ccccc2N(Cc2ccc(Cl)c(Cl)c2)C1 (stereo not drawn) [Compound 10, N^4-(1-(3,4-dichlorobenzyl)-1,2,3,4-tetrahydroquinolin-3-yl)-N^4-methyl-1H-pyrazolo[3,4-d]pyrimidine-4,6-diamine] | < 50 | 50 to 79 | < 50 | < 50 | < 50 | 1550
Cc1noc(C)c1S(=O)(=O)N1CC(Nc2nc(N)nc3[nH]ncc23)Cc2ccccc21 (stereo not drawn) [Compound 15, N4-(1-(3,5-dimethylisoxazol-4-ylsulfonyl)-1,2,3,4-tetrahydroquinolin-3-yl)-1H-pyrazolo[3,4-d]pyrimidine-4,6-diamine] | > 79 | > 79 | > 79 | > 79 | > 79 | > 30000
Nc1nc(NC2Cc3ccccc3N(S(=O)(=O)c3cccc4nsnc34)C2)c2cn[nH]c2n1 (stereo not drawn) [Compound 17, N4-(1-(benzo[c][1,2,5]thiadiazol-4-ylsulfonyl)-1,2,3,4-tetrahydroquinolin-3-yl)-1H-pyrazolo[3,4-d]pyrimidine-4,6-diamine] | < 50 | < 50 | < 50 | < 50 | < 50 | 15300
Nc1nc(NC2Cc3ccccc3N(S(=O)(=O)c3cccc(F)c3)C2)c2cn[nH]c2n1 (stereo not drawn) [Compound 18, N4-(1-(3-fluorophenylsulfonyl)-1,2,3,4-tetrahydroquinolin-3-yl)-1H-pyrazolo[3,4-d]pyrimidine-4,6-diamine] | < 50 | < 50 | < 50 | < 50 | < 50 | 370
Nc1nc(NC2Cc3ccccc3N(Cc3ccc(F)c(F)c3)C2)c2cn[nH]c2n1 (stereo not drawn) [Compound 124, N4-[1-(3,4-difluorobenzyl)-1,2,3,4-tetrahydroquinolin-3-yl]-1H-pyrazolo[3,4-d]pyrimidine-4,6-diamine] | – | – | – | – | – | 1330
Nc1nc(NC2Cc3ccccc3N(S(=O)(=O)c3cccc(NC(=O)Nc4ccc5c(c4)CCC5)c3)C2)c2cn[nH]c2n1 (stereo not drawn) [Compound 214, 1-[3-({3-[(6-amino-1H-pyrazolo[3,4-d]pyrimidin-4-yl)amino]-3,4-dihydroquinolin-1(2H)-yl}sulfonyl)phenyl]-3-(2,3-dihydro-1H-inden-5-yl)urea] | > 79 | > 79 | > 79 | 50 to 79 | > 79 | –
Nc1nc(NC2Cc3ccccc3N(S(=O)(=O)c3cccc(NC(=O)Nc4ccccc4F)c3)C2)c2cn[nH]c2n1 (stereo not drawn) [Compound 215, 1-[3-({3-[(6-amino-1H-pyrazolo[3,4-d]pyrimidin-4-yl)amino]-3,4-dihydroquinolin-1(2H)-yl}sulfonyl)phenyl]-3-(2-fluorophenyl)urea] | – | – | – | < 50 | – | –
Nc1nc(NC2Cc3ccccc3N(S(=O)(=O)c3cccc(NC(=O)Nc4cc(F)cc(C(F)(F)F)c4)c3)C2)c2cn[nH]c2n1 (stereo not drawn) [Compound 217, 1-[3-({3-[(6-amino-1H-pyrazolo[3,4-d]pyrimidin-4-yl)amino]-3,4-dihydroquinolin-1(2H)-yl}sulfonyl)phenyl]-3-[3-fluoro-5-(trifluoromethyl)phenyl]urea] | > 79 | > 79 | > 79 | > 79 | > 79 | –
Cc1ccc(Cl)c(NC(=O)Nc2cccc(S(=O)(=O)N3CC(Nc4nc(N)nc5[nH]ncc45)Cc4ccccc43)c2)c1 (stereo not drawn) [Compound 218, 1-[3-({3-[(6-amino-1H-pyrazolo[3,4-d]pyrimidin-4-yl)amino]-3,4-dihydroquinolin-1(2H)-yl}sulfonyl)phenyl]-3-(2-chloro-5-methylphenyl)urea] | > 79 | > 79 | > 79 | > 79 | > 79 | –
Nc1nc(NC2Cc3ccccc3N(S(=O)(=O)c3cccc(NC(=O)Nc4cccc(F)c4)c3)C2)c2cn[nH]c2n1 (stereo not drawn) [Compound 219, 1-[3-({3-[(6-amino-1H-pyrazolo[3,4-d]pyrimidin-4-yl)amino]-3,4-dihydroquinolin-1(2H)-yl}sulfonyl)phenyl]-3-(3-fluorophenyl)urea] | > 79 | > 79 | > 79 | > 79 | > 79 | –
Nc1nc(NC2Cc3ccccc3N(S(=O)(=O)c3cccc(NC(=O)Nc4cc(C(F)(F)F)ccc4F)c3)C2)c2cn[nH]c2n1 (stereo not drawn) [Compound 220, 1-[3-({3-[(6-amino-1H-pyrazolo[3,4-d]pyrimidin-4-yl)amino]-3,4-dihydroquinolin-1(2H)-yl}sulfonyl)phenyl]-3-[2-fluoro-5-(trifluoromethyl)phenyl]urea] | > 79 | > 79 | > 79 | > 79 | > 79 | –
Nc1nc(NC2Cc3ccccc3N(S(=O)(=O)c3cccc(NC(=O)Nc4cccc(Cl)c4F)c3)C2)c2cn[nH]c2n1 (stereo not drawn) [Compound 221, 1-[3-({3-[(6-amino-1H-pyrazolo[3,4-d]pyrimidin-4-yl)amino]-3,4-dihydroquinolin-1(2H)-yl}sulfonyl)phenyl]-3-(3-chloro-2-fluorophenyl)urea] | > 79 | > 79 | > 79 | > 79 | > 79 | –
Nc1nc(NC2Cc3ccccc3N(S(=O)(=O)c3cccc(NC(=O)Nc4ccc(Cl)c(C(F)(F)F)c4)c3)C2)c2cn[nH]c2n1 (stereo not drawn) [Compound 223, 1-(3-(3-(6-amino-1H-pyrazolo[3,4-d]pyrimidin-4-ylamino)-3,4-dihydroquinolin-1(2H)-ylsulfonyl)phenyl)-3-(4-chloro-3-(trifluromethyl)phenyl)urea] | > 79 | > 79 | > 79 | > 79 | > 79 | –
Nc1nc(NC2Cc3ccccc3N(S(=O)(=O)c3ccc(NC(=O)Nc4ccccc4)cc3)C2)c2cn[nH]c2n1 (stereo not drawn) [Compound 225, 1-(4-(3-(6-amino-1H-pyrazolo[3,4-d]pyrimidin-4-ylamino)-3,4-dihydroquinolin-1(2H)-ylsulfonyl)phenyl)-3-phenylurea] | > 79 | > 79 | > 79 | > 79 | > 79 | –
